Reference: publication PMC7377239, “Cardiovascular Effects of Polychlorinated Biphenyls and Their Major Metabolites” (Environmental Health Perspectives, 2020)
Where two headings read alike, the source gives them in different places.

Test system: iCell cardiomyocytes (human iPSC-derived cardiomyocytes)
Experiment: High-content imaging of cytotoxicity and mitochondrial integrity in iPSC-CMs
Type: cell-based
Details: Homo sapiens, Cardiomyocyte; for viability at 0.01 µM / activity at 0.01 µM / viability at 0.1 µM / activity at 0.1 µM / viability at 1 µM / activity at 1 µM / viability at 10 µM / activity at 10 µM / viability at 100 µM / activity at 100 µM: 0.00 µM = 100.00; for viability at 0.1 µM / activity at 0.1 µM: 0.10 µM
Procedure, shortened: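 Readouts from high-content images were normalized to vehicle controls containing 0.5% vol/vol DMSO. They were fit to a four-parameter logistic model in R. Points of departure were set using a cutoff of one standard deviation across vehicle control means. Where no concentration–response was seen, the top tested concentration of 100μM was assigned as the no observable adverse effect level.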

[1] = 1.5 h, 90min, read-out: cm.cam.90min
[2] = 1.5 h, 90min, read-out: cm.mii.90min
[3] = 1.5 h, 90min, read-out: cm.mito.90min
[4] = 1.5 h, 90min, read-out: cm.tc.90min
[5] = 24 h, 24hrs, read-out: cm.cam.24hrs
[6] = 24 h, 24hrs, read-out: cm.mii.24hrs
[7] = 24 h, 24hrs, read-out: cm.mito.24hrs
[8] = 24 h, 24hrs, read-out: cm.tc.24hrs

Work on `Clc1ccc(-c2cc(Cl)c(Cl)c(Cl)c2)cc1Cl` [PCB126] yielded a viability at 0.01 µM [1] of 107%, an activity at 0.01 µM [2] of 97.6% and an activity at 0.01 µM [3] of 108%. It also gave a viability at 0.01 µM [4] of 107%, a viability at 0.1 µM [1] of 101% and an activity at 0.1 µM [2] of 106%. It also gave an activity at 0.1 µM [3] of 101%, a viability at 0.1 µM [4] of 101% and a viability at 1 µM [1] of 97.4%. The activity at 1 µM [2] was 111%, the activity at 1 µM [3] was 97.2% and the viability at 1 µM [4] was 97.2%. It also gave a viability at 10 µM [1] of 97.1%, an activity at 10 µM [2] of 103% and an activity at 10 µM [3] of 96.8%. It also gave a viability at 10 µM [4] of 96.8%, a viability at 100 µM [1] of 97.2% and an activity at 100 µM [2] of 111%. The activity at 100 µM [3] was 96.7%, the viability at 100 µM [4] was 96.7% and the minimal effective concentration (1.5 h, 90min, read-out: cm.cam.90min POD) was 100 µM. The minimal effective concentration (1.5 h, 90min, read-out: cm.mii.90min POD) was 100 µM, the minimal effective concentration (1.5 h, 90min, read-out: cm.mito.90min POD) was 100 µM and the minimal effective concentration (1.5 h, 90min, read-out: cm.tc.90min POD) was 100 µM. The viability at 0.01 µM [5] was 94.2%, the activity at 0.01 µM [6] was 109% and the activity at 0.01 µM [7] was 94%. For the same molecule, the viability at 0.01 µM [8] was 93.7%, the viability at 0.1 µM [5] was 97.6% and the activity at 0.1 µM [6] was 80.7%. The activity at 0.1 µM [7] was 96.1%, the viability at 0.1 µM [8] was 98% and the viability at 1 µM [5] was 101%. The activity at 1 µM [6] was 103%, the activity at 1 µM [7] was 103% and the viability at 1 µM [8] was 101%. For the same molecule, the viability at 10 µM [5] was 90.4%, the activity at 10 µM [6] was 74% and the activity at 10 µM [7] was 88.5%. For the same molecule, the viability at 10 µM [8] was 90.2%, the viability at 100 µM [5] was 46.6% and the activity at 100 µM [6] was 101%. The activity at 100 µM [7] was 35.6%, the viability at 100 µM [8] was 48.4% and the minimal effective concentration (24 h, read-out: cm.cam.24hrs POD) was 7.03 µM. It also gave a minimal effective concentration (24 h, read-out: cm.mii.24hrs POD) of 100 µM, a minimal effective concentration (24 h, read-out: cm.mito.24hrs POD) of 7.54 µM and a minimal effective concentration (24 h, read-out: cm.tc.24hrs POD) of 6.48 µM.
